Data as given in US5164381A, “Pharmacologically active 1,5-diaryl-3-substituted pyrazoles and method for synthesizing the same” (Ortho Pharmaceutical Corporation, priority 1991, dated 1992).
Read-outs that look alike come from different tables or passages of the source.

Assays:
[1] = tested on: gastrointestinal tract; conditions: suboptimal antiinflammatory doses; cited from earlier work
[2] = tested on: Leukotriene B4; assay: Immune complex-induced synovitis in the dog knee joint: leukotriene B4 levels; type: in vivo, Mongrel dogs; conditions: for levels of LTB4 in the synovial fluid (in words): 100 mg/kg orally; for levels of LTB4 in the synovial fluid (in words) / LTB4 levels (in words): dog; for LTB4 levels (in words): i.v. 25 mg/kg or orally
Protocol: (§1) The accuracy of the puncture was assured by the aspiration of clear, viscous synovial fluid (time 0 sample). The syringe was removed and immune complexes (see below) were injected into the synovial space. The synovial space was re-entered at various time intervals and synovial fluid was withdrawn. The volume of fluid was recorded and then added to 3.0 ml of 0.3% saline. A sample was removed and the number of cells present counted with the use of a hemocytometer and microscope to enumerate the total number of cells in the joint. The remaining sample was centrifuged at 1000×g for 10 minutes and the supernatant analyzed for prostaglandin E2 levels and leukotriene B4 levels.
(§2) To prepare the immune complex, two hundred milligrams of partially purified dog IgG was dissolved in 20 ml 0.9% sterile sodium chloride. The solution was clarified by centrifugation at 2230×G at 20° C. for 10 minutes. A 3 ml volume of the 10.0 mg/ml solution of dog IgG was mixed with 1 ml rabbit anti-dog IgG serum and incubated at room temperature for 20 minutes.
(§3) Four milliliters of saturated ammonium sulfate were added to the mixture to precipitate the complex and all free dog IgG and rabbit gamma globulin. The sample was then centrifuged (as above) and the pellet resuspended in 10 ml 0.9% sterile saline. One ml of this solution was injected into a knee joint.
(§4) Following the intra-articular administration of immune complexes synovial fluid samples were taken at 30 minutes, 1,2,4 and 24 hours, alternating knees for sampling (except at 24 hours when both knees were sampled).
(§5) The articular joint was entered and a zero hour synovial fluid sample was removed. 1 ml of immune complexes was injected into the synovial joint of both legs. […] Synovial fluid samples were taken at 30 minutes, 1, 2 and 4 hours. All samples were analyzed for total granulocyte count using a laser flow cytometer. Prostaglandin and leukotriene concentrations were determined with standard RIA techniques.

[3] = tested on: cyclooxygenase (CO); conditions: cited from earlier work
[4] = tested on: Prostaglandin E2; assay: Immune complex-induced synovitis in the dog knee joint: prostaglandin E2 levels; type: in vivo, Mongrel dogs; conditions: for levels of PGE2 in the synovial fluid (in words): 100 mg/kg orally; for levels of PGE2 in the synovial fluid (in words) / PGE2 levels (in words): dog; for Prostaglandin E2 Levels: radioimmunoassay; for PGE2 levels (in words): i.v. 25 mg/kg or orally
Protocol: as §1, §2, §3, §4, §5

[5] = tested on: total cells in synovial fluid of dog knee joint; assay: Immune complex-induced synovitis in the dog knee joint: cellular infiltrate; type: in vivo, Mongrel dogs; conditions: for cellular infiltrate (in words): 100 mg/kg orally; for cellular infiltrate (in words) / total cell number / cellular infiltration (in words): dog; for total cell number / cellular infiltration (in words): i.v. 25 mg/kg or orally
Protocol: as §1, §2, §3, §4, §5

[6] = tested on: Lewis strain laboratory rats; assay: In vivo alleviation of inflammation: polyarthritis (adjuvant, Mycobacterium butyricum) in rats, inhibition of paw volume increase; conditions: Rattus norvegicus, po
[7] = tested on: cyclooxygenase (CO); assay: Inhibition of cyclooxygenase (CO)
[8] = in vivo; conditions: rat, in vivo
Source text: (§6) All NSAIDs are inhibitors of CO and their potency against this enzyme activity correlates well with clinical doses used in rheumatic diseases. There is also a correlation between CO inhibition (decreased PGE2) and the ability to induce gastric lesions in the fasted rat model. All NSAIDs induce at least some gastrointestinal lesions within their therapeutic range.

[9] = tested on: gastrointestinal tract; assay: Ulcerogenicity in rats (gastric lesions, fasted rat model); conditions: rats
Source text: as §6

[10] = tested on: 5-lipoxygenase (5-LO); assay: Inhibition of 5-lipoxygenase (5-LO)
[11] = tested on: gastrointestinal; assay: Gastrointestinal side effects in dogs after one week; type: in vivo; conditions: doses up to 2700 mg/kg
Source text: as §6

[12] = tested on: bronchospasm / LTB4; assay: Arachidonic acid-induced bronchospasm and LTB4 blood levels in anesthetized guinea pigs; type: in vivo; conditions: administered orally, guinea pigs
Protocol: Intravenous administration of 10 mg/kg AA to anesthetized guinea pigs pretreated with indomethacin (10 mg/kg) and propranolol (0.1 mg/kg) results in a sustained bronchospasm which is associated with increased blood levels of LTB4. […] In the dog, intraarticular injection of rabbit anti-dog-dog IgG immune complexes into the knee joint results in an acute synovitis characterized by an influx of inflammatory cells into the joint space as well as an increase in synovial fluid levels of PGE2 and LTB4.

## COc1ccc2cc([C@H](C)C(=O)O)ccc2c1 [Naproxen, reference compound]
[1]
  ulcers in rats (in words): significant ulcers
[2]
  levels of LTB4 in the synovial fluid (in words): increased the LTB4 levels
  LTB4 levels (in words): does not decrease
[2]; 100 mg/kg p.o., 0.5 Hr
  % I (inhibition) of leukotriene B4: 10.5%
  Leukotriene B4: 1.11 ± 0.36 ng/ml Synovial Fluid
[2]; 100 mg/kg p.o., 1 Hr
  % I (inhibition) of leukotriene B4: -26.7%
  Leukotriene B4: 3.27 ± 1.53 ng/ml Synovial Fluid
[2]; 100 mg/kg p.o., 2 Hr
  % I (inhibition) of leukotriene B4: -47.4%
  Leukotriene B4: 5.94 ± 1.33 ng/ml Synovial Fluid
[2]; 100 mg/kg p.o., 4 Hr
  % I (inhibition) of leukotriene B4: -140%
  Leukotriene B4: 3.36 ± 1.28 ng/ml Synovial Fluid
[3]
  inhibition of cyclooxygenase enzyme by NSAIDs (in words): only inhibit the cyclooxygenase enzyme
[4]
  levels of PGE2 in the synovial fluid (in words): inhibited
  PGE2 levels (in words): inhibits PGE 2 levels
[4]; 100 mg/kg p.o., 0.5 Hr
  Prostaglandin E2 Levels: 0.83 ± 0.24 ng/mL
[4]; 100 mg/kg p.o., 1 Hr
  Prostaglandin E2 Levels: 1.67 ± 0.73 ng/mL
[4]; 100 mg/kg p.o., 2 Hr
  % I (inhibition) of prostaglandin E2 levels: 62.0%
  Prostaglandin E2 Levels: 1.88 ± 0.86 ng/mL
[4]; 100 mg/kg p.o., 4 Hr
  % I (inhibition) of prostaglandin E2 levels: 44.9%
  Prostaglandin E2 Levels: 2.2 ± 0.97 ng/mL
[5]
  cellular infiltrate (in words): inhibited the cell infiltration
  total cell number / cellular infiltration (in words): inhibits
[5]; 100 mg/kg p.o., 0.5 HR
  Cellular Infiltrate Total Cells (× 10^6): 0.32 ± 0.11 × 10^6
[5]; 100 mg/kg p.o., 1 HR
  Cellular Infiltrate Total Cells (× 10^6): 0.02 ± 0.02 × 10^6
[5]; 100 mg/kg p.o., 2 HR
  % I (inhibition) of total cells: 36.6%
  Cellular Infiltrate Total Cells (× 10^6): 2.69 ± 0.63 × 10^6
[5]; 100 mg/kg p.o., 4 HR
  % I (inhibition) of total cells: 44.2%
  Cellular Infiltrate Total Cells (× 10^6): 27.6 ± 24 × 10^6

## COc1ccc(-n2nc(CCC(=O)N(C)O)cc2-c2ccc(Cl)cc2)cc1 [Compound 3, 3-[5-(4-Chlorophenyl)-1-(4-methoxyphenyl)-3-pyrazolyl]-N-hydroxy-N-methylpropanamide]
[6]; adjuvant rat, read-out: dose which inhibits the inflammatory response of the adjuvant rat by 50 percent (ED50)
  ED50: 3 mg/kg
[6]; rat, read-out: ED50 (effective dose to obtain a 50% inhibition of inflammation)
  ED50: 4.1 mg/kg
[7]
  inhibition of cyclooxygenase (CO) (in words): inhibits both the cyclooxygenase (CO) and 5-lipoxygenase (5-LO) enzymes
[8]
  TD50: 173 mg/kg
  selectivity ratio: 58
[9]
  ulcerogenicity in the gastrointestinal tract (in words): reduced ulcerogenic activity
[9]; listed as compound 3
  ulcerogenicity in the gastrointestinal tract (in words): lack of ulcerogenicity in the gastrointestinal tract
[10]
  inhibition of 5-lipoxygenase (5-LO) (in words): inhibits both the cyclooxygenase (CO) and 5-lipoxygenase (5-LO) enzymes
[2]; 25 mg/kg p.o., 1 Hr
  Leukotriene B4: 3.00 ± 1.2 ng/ml Synovial Fluid
[2]; 25 mg/kg p.o., 2 Hr
  Leukotriene B4: 4.60 ± 2.10 ng/ml Synovial Fluid
[2]; 25 mg/kg p.o., 4 Hr
  Leukotriene B4: 1.20 ± 0.6 ng/ml Synovial Fluid
[2]
  levels of LTB4 in the synovial fluid (in words): reduces
  LTB4 levels (in words): significantly inhibits
[2]; 100 mg/kg p.o., 0.5 Hr
  % I (inhibition) of leukotriene B4: 25%
  Leukotriene B4: 0.93 ± 0.26 ng/ml Synovial Fluid
[2]; 100 mg/kg p.o., 1 Hr
  % I (inhibition) of leukotriene B4: 69%
  Leukotriene B4: 0.80 ± 0.09 ng/ml Synovial Fluid
[2]; 100 mg/kg p.o., 2 Hr
  % I (inhibition) of leukotriene B4: 39%
  Leukotriene B4: 2.46 ± 0.94 ng/ml Synovial Fluid
[2]; 100 mg/kg p.o., 4 Hr
  % I (inhibition) of leukotriene B4: 37%
  Leukotriene B4: 0.88 ± 0.23 ng/ml Synovial Fluid
[2]; administered orally, dogs
  inhibition of leukotriene production (in words): effective inhibitor of leukotriene production
[11]
  significant gastrointestinal side effects (in words): no significant gastrointestinal side effects
[12]
  inhibition of leukotriene production (in words): effective inhibitor of leukotriene production
[4]; 25 mg/kg p.o., 1 Hr
  Prostaglandin E2 Levels: 2.34 ± 1 ng/mL
[4]; 25 mg/kg p.o., 2 Hr
  % I (inhibition) of prostaglandin E2 levels: 38.2%
  Prostaglandin E2 Levels: 2.96 ± 0.92 ng/mL
[4]; 25 mg/kg p.o., 4 Hr
  % I (inhibition) of prostaglandin E2 levels: 44.6%
  Prostaglandin E2 Levels: 2.27 ± 0.76 ng/mL
[4]
  levels of PGE2 in the synovial fluid (in words): reduces
  PGE2 levels (in words): significantly inhibits
[4]; 100 mg/kg p.o., 0.5 Hr
  Prostaglandin E2 Levels: 1.8 ± 1.29 ng/mL
[4]; 100 mg/kg p.o., 1 Hr
  Prostaglandin E2 Levels: 1.5 ± 1.05 ng/mL
[4]; 100 mg/kg p.o., 2 Hr
  % I (inhibition) of prostaglandin E2 levels: 97.9%
  Prostaglandin E2 Levels: 0.1 ± 0.08 ng/mL
[4]; 100 mg/kg p.o., 4 Hr
  % I (inhibition) of prostaglandin E2 levels: 42.4%
  Prostaglandin E2 Levels: 2.36 ± 0.53 ng/mL
[5]; 25 mg/kg p.o., 0.5 HR
  Cellular Infiltrate Total Cells (× 10^6): 0.12 ± 0.04 × 10^6
[5]; 25 mg/kg p.o., 1 HR
  Cellular Infiltrate Total Cells (× 10^6): 0.39 ± 0.19 × 10^6
[5]; 25 mg/kg p.o., 2 HR
  % I (inhibition) of total cells: 7.4%
  Cellular Infiltrate Total Cells (× 10^6): 5.74 ± 2.5 × 10^6
[5]; 25 mg/kg p.o., 4 HR
  % I (inhibition) of total cells: 6.5%
  Cellular Infiltrate Total Cells (× 10^6): 46.3 ± 27.9 × 10^6
[5]
  cellular infiltrate (in words): reduces the cellular infiltrate
  total cell number / cellular infiltration (in words): significantly inhibits
[5]; 100 mg/kg p.o., 0.5 HR
  Cellular Infiltrate Total Cells (× 10^6): 0.26 ± 0.23 × 10^6
[5]; 100 mg/kg p.o., 1 HR
  Cellular Infiltrate Total Cells (× 10^6): 0.13 ± 0.07 × 10^6
[5]; 100 mg/kg p.o., 2 HR
  % I (inhibition) of total cells: 78%
  Cellular Infiltrate Total Cells (× 10^6): 1.35 ± 0.55 × 10^6
[5]; 100 mg/kg p.o., 4 HR
  % I (inhibition) of total cells: 55.2%
  Cellular Infiltrate Total Cells (× 10^6): 22.2 ± 6.6 × 10^6
